Assay results from US20030229105A1, “Treatment of autoimmune disorders” (Cyclacel Limited, priority 2002, published 2003).

Legend:
CEM cells = test: Cell proliferation, [3H]thymidine incorporation; type: cell-based; conditions: ca. 10 μM
Excerpt: We next sought to determine whether the inhibition of HIV-1 transcription, observed above, could be mediated specifically by cdk inhibitors or by general cell cycle inhibitors. To distinguish between the two possibilities, we performed transfection experiments with all three cdk inhibitors tested above and two other well-established cell cycle inhibitors, namely, hydroxyurea and nocodazole. Hydroxyurea blocks DNA replication by inhibiting ribonucleotide reductase and thus arrests cell cycle progression at the G1/S checkpoint, while nocodazole blocks at G2/M by promoting tubulin depolymerization. […] Therefore, the basal transcription of HIV-1 was inhibited by purine analogs and not general cell cycle inhibitors.
FIG. 3 discloses inhibition of HIV-1 basal and activated transcription by cdk inhibitors. […] The graphs at the bottom of the figure represent the effect of various concentrations of general cell cycle inhibitors (hydroxyurea and nocodazole) on CEM cells. (B) Inhibition of activated transcription in CEM cells was examined using transfected HIV-1 LTR-CAT, together with pcTat plasmid. […]
Cells (CEM) were initially treated with various concentrations of hydroxyurea or nocodazole and evaluated after 0, 12, 24, 48, 60, and 72 h. […] The amount of radioactivity incorporated into the DNA was measured in a liquid scintillation counter (Packard) and expressed as the counts per minute (cpm). […]

HIV-1 = test: p24 antigen ELISA of supernatants from induced HIV-1 latently infected cells (ACH2, 8E5, U1); type: cell-based; conditions: for inhibition of HIV-1 replication, prolonged treatment: U1 and 8E5 cells, up to 21 days, 5 or 10 μM (data not shown); for postintegrative HIV-1 progeny formation: low concentrations (data not shown)
Procedure: We chose HIV-1 stably integrated cells, lymphocytic ACH2 and 8E5 cell lines, as well as monocytic U1 cells (and their uninfected parental counterparts CEM and U937, respectively) for our initial studies, since viral transcription could be activated and scored through signals, such as Tat, TNF-α or phorbol myristate acetate (PMA) and PHA. We first activated viruses in these cells with TNF-α (10 ng/ml) at 37° C. for 2 h, followed by washing, and then we incubated cells with 10 μM concentrations of each drug. […] We next examined the effect of all three drugs on primary HIV-1 field isolates of SI and NSI strains. Activated PBMC were infected with two independent HIV-1 viral strains of SI (UG/92/029, subtype A envelope) and NSI (THA/92/001, subtype E envelope).
Five days later, the supernatants were collected, and the amount of newly synthesized HIV-1 was measured by p24 antigen assay. (B) Purified Tat (300 μg) was electroporated into ACH2, 8E5, and U1 cells and subsequently treated with various drugs for 5 days. […] Seven days later samples were collected and used for p19 gag ELISA. (E) PHA-activated PBMC (5×10^6) were infected with HIV-1 either SI (UG/92/029 Uganda strain, subtype A envelope) or NSI (THA/92/001, Thailand strain, subtype E envelope) strains. Unadsorbed viruses were washed after 6 h, and cells were cultured in fresh media with various cdk inhibitors (10 μM). Samples were collected every sixth day and used for p24 gag ELISA assay.
At days 2, 4, and 6, the supernatants were collected, and the released HIV-1 particles were measured by using a p24 antigen ELISA assay. (B) Twenty micrograms of total RNA was separated on an RNA-formaldehyde-agarose gel, transferred, and probed with full-length labeled HIV-1 genome RNA. The hybridized genomic RNA, singly spliced (structural), and doubly spliced (regulatory) RNAs were exposed and counted by using Molecular Dynamic PhosphorImager software.
Supernatants from the infected PBMC were collected and used directly for the p24 antigen assay. The p24 gag antigen level was analyzed by using the HIVAG-1 Monoclonal Antibody Kit (Abbott Laboratories, Diagnostics Division). The HTLV-1 p19 core antigen ELISA kit was from Retro-Tek (Cellular Products).

[1] = tested on: uninfected T and monocytic cells; test: Initial test of cdk inhibitors on uninfected cells (data not shown)

## COC(=O)Nc1nc2ccc(C(=O)c3cccs3)cc2[nH]1 [nocodazole, reference compound]
CEM cells
  inhibition of DNA synthesis: no inhibition of DNA synthesis was observed
HIV-1
  inhibition of HIV-1 replication, prolonged treatment: neither hydroxyurea nor nocodazole was able to inhibit HIV-1 replication
  postintegrative HIV-1 progeny formation: slightly higher

## NC(=O)NO [hydroxyurea, reference compound]
CEM cells
  inhibition of DNA synthesis: no inhibition of DNA synthesis was observed
HIV-1
  inhibition of HIV-1 replication, prolonged treatment: neither hydroxyurea nor nocodazole was able to inhibit HIV-1 replication
  postintegrative HIV-1 progeny formation: remained essentially the same

## Cn1cnc2c(NCc3ccccc3)nc(NCCO)nc21 [Olomoucine]
[1]
  toxicity in uninfected cells: lack of toxicity
